Here are results for 6 molecules from ChEMBL document CHEMBL4052765, “Synthesis and antibacterial evaluation of novel 11-O-carbamoyl clarithromycin ketolides” (2017).

Holding throughout (assay type): functional
Test [1] deals with Streptococcus pneumoniae. In words: Potency index, ratio of azithromycin MIC to compound MIC against erythromycin-resistant Streptococcus pneumoniae A22072.
Test [2] relates to Streptococcus pneumoniae. Put plainly: Antibacterial activity against erythromycin-resistant Streptococcus pneumoniae AB11 harboring harboring mef and erm gene after 24 h by NCCLS broth microdilution method. The following applies: AB11, 24 h.
The test system of test [3] is Streptococcus pyogenes. In words: Antibacterial activity against erythromycin-resistant Streptococcus pyogenes R1 after 24 h by NCCLS broth microdilution method. As to conditions: R1, 24 h. On the technique in general: Dilution methods test growth across graded concentrations, often in twofold steps.
For test [4], the system named is Streptococcus pneumoniae. In words: Antibacterial activity against erythromycin-resistant Streptococcus pneumoniae A22072 harboring mef gene after 24 h by NCCLS broth microdilution method. The following applies: A22072, 24 h.
The subject of test [5] is Streptococcus pneumoniae. Put plainly: Antibacterial activity against erythromycin-resistant Streptococcus pneumoniae B1 harboring erm gene after 24 h by NCCLS broth microdilution method. The following applies: B1, 24 h.
For test [6], the system named is Staphylococcus aureus. In words: Antibacterial activity against […] Staphylococcus aureus ATCC 29213 after 24 h by NCCLS broth microdilution method. The following applies: ATCC 29213, 24 h.
Another test deals with Bacillus subtilis. Put plainly: Antibacterial activity against penicillin-susceptible Bacillus subtilis ATCC 9372 after 24 h by NCCLS broth microdilution method. The following applies: ATCC 9372, 24 h.
Another test relates to Pseudomonas aeruginosa. Put plainly: Antibacterial activity against penicillin-susceptible Pseudomonas aeruginosa ATCC 27853 after 24 h by NCCLS broth microdilution method. As to conditions: ATCC 27853, 24 h.
Test [7] deals with Streptococcus pyogenes. Put plainly: Antibacterial activity against erythromycin-susceptible Streptococcus pyogenes after 24 h by NCCLS broth microdilution method.
The test system of another test is Escherichia coli. Put plainly: Antibacterial activity against penicillin-susceptible Escherichia coli ATCC 25922 after 24 h by NCCLS broth microdilution method. The following applies: ATCC 25922, 24 h.
The subject of test [8] is Staphylococcus aureus. Put plainly: Antibacterial activity against erythromycin-susceptible Staphylococcus aureus ATCC 25923 after 24 h by NCCLS broth microdilution method. The following applies: ATCC 25923, 24 h.
For test [9], the system named is Streptococcus pneumoniae. Put plainly: Potency index, ratio of clarithromycin MIC to compound MIC against erythromycin-resistant Streptococcus pneumoniae A22072.
For test [10], the system named is Staphylococcus aureus. In words: Potency index, ratio of clarithromycin MIC to compound MIC against […] Staphylococcus aureus ATCC 29213.

Molecules are shown by their SMILES. In brackets after ≈: the same amount, converted by molar mass. Some results are limits rather than exact numbers.

Consider `CC[C@H]1OC(=O)[C@H](C)C(=O)[C@H](C)[C@@H](O[C@@H]2O[C@H](C)C[C@H](N(C)C)[C@H]2O)[C@](C)(OC)C[C@@H](C)C(=O)[C@H](C)[C@@H](OC(=O)NCCNC(=O)c2ccc(Cl)cc2)[C@]1(C)O`, for which the Ratio in the test with Streptococcus pneumoniae [1] stood at 4. Moreover, the MIC is 64 mg/L (≈ 78.8 µM) against Streptococcus pneumoniae [2]; greater than 128 mg/L in the test on Streptococcus pyogenes [3]; 0.5 mg/L (≈ 0.615 µM) in the test with Streptococcus pneumoniae [4]; 128 mg/L (≈ 158 µM) in the test on Streptococcus pneumoniae [5]; 128 mg/L (≈ 158 µM) in the test on Staphylococcus aureus [6]; 0.25 mg/L (≈ 0.308 µM) against Bacillus subtilis. The MIC with Pseudomonas aeruginosa is 128 mg/L (≈ 158 µM); in the test on Streptococcus pyogenes [7], 1 mg/L (≈ 1.23 µM); with Escherichia coli it was greater than 128 mg/L; in the test with Staphylococcus aureus [8], 16 mg/L (≈ 19.7 µM).
`CC[C@H]1OC(=O)[C@H](C)C(=O)[C@H](C)[C@@H](O[C@@H]2O[C@H](C)C[C@H](N(C)C)[C@H]2O)[C@](C)(OC)C[C@@H](C)C(=O)[C@H](C)[C@@H](OC(=O)NCCNC(=O)c2ccc([N+](=O)[O-])cc2N)[C@]1(C)O`: the Ratio turned out to be 4 in the test with Streptococcus pneumoniae [1] and 8 in the test with Streptococcus pneumoniae [9]. In addition, the minimal inhibitory concentration (MIC) in the test with Streptococcus pneumoniae [2] is 64 mg/L (≈ 76.4 µM); against Streptococcus pyogenes [3] it was greater than 128 mg/L; against Streptococcus pneumoniae [4] it was 0.5 mg/L (≈ 0.597 µM); against Streptococcus pneumoniae [5], 128 mg/L (≈ 153 µM); against Staphylococcus aureus [6] it was 128 mg/L (≈ 153 µM); against Bacillus subtilis, 1 mg/L (≈ 1.19 µM). For the same molecule, the MIC against Pseudomonas aeruginosa was greater than 128 mg/L; against Streptococcus pyogenes [7], 0.5 mg/L (≈ 0.597 µM); in the test on Escherichia coli it was 128 mg/L (≈ 153 µM); against Staphylococcus aureus [8] it was 8 mg/L (≈ 9.55 µM).
As for `CC[C@H]1OC(=O)[C@H](C)C(=O)[C@H](C)[C@@H](O[C@@H]2O[C@H](C)C[C@H](N(C)C)[C@H]2O)[C@](C)(OC)C[C@@H](C)C(=O)[C@H](C)[C@@H](OC(=O)NCCNC(=O)/C=C/c2ccc(Cl)cc2)[C@]1(C)O`, the Ratio in the test on Streptococcus pneumoniae [1] is 4; in the test on Streptococcus pneumoniae [9], 8. The MIC in the test with Streptococcus pneumoniae [2] was 128 mg/L (≈ 153 µM); in the test on Streptococcus pyogenes [3], greater than 128 mg/L; in the test with Streptococcus pneumoniae [4], 0.5 mg/L (≈ 0.596 µM); against Streptococcus pneumoniae [5], 128 mg/L (≈ 153 µM); in the test with Staphylococcus aureus [6], 64 mg/L (≈ 76.3 µM); in the test on Bacillus subtilis it was 4 mg/L (≈ 4.77 µM). Further, the MIC in the test on Pseudomonas aeruginosa is greater than 128 mg/L; in the test with Streptococcus pyogenes [7], 2 mg/L (≈ 2.39 µM); against Escherichia coli, greater than 128 mg/L; in the test with Staphylococcus aureus [8], 16 mg/L (≈ 19.1 µM).
Regarding `CC[C@H]1OC(=O)[C@H](C)C(=O)[C@H](C)[C@@H](O[C@@H]2O[C@H](C)C[C@H](N(C)C)[C@H]2O)[C@](C)(OC)C[C@@H](C)C(=O)[C@H](C)[C@@H](OC(=O)NCCNC(=O)/C=C/c2ccco2)[C@]1(C)O`, in the test on Staphylococcus aureus [10], the Ratio amounted to 4. Also, the MIC is 128 mg/L (≈ 161 µM) with Streptococcus pneumoniae [2]; greater than 128 mg/L in the test with Streptococcus pyogenes [3]; 1 mg/L (≈ 1.26 µM) against Streptococcus pneumoniae [4]; 128 mg/L (≈ 161 µM) in the test on Streptococcus pneumoniae [5]; 16 mg/L (≈ 20.2 µM) against Staphylococcus aureus [6]; 8 mg/L (≈ 10.1 µM) against Bacillus subtilis. Besides, the MIC against Pseudomonas aeruginosa turned out to be 128 mg/L (≈ 161 µM); against Streptococcus pyogenes [7], 4 mg/L (≈ 5.04 µM); in the test with Escherichia coli it was 128 mg/L (≈ 161 µM); in the test with Staphylococcus aureus [8] it was 64 mg/L (≈ 80.6 µM).
On to `CC[C@H]1OC(=O)[C@H](C)C(=O)[C@H](C)[C@@H](O[C@@H]2O[C@H](C)C[C@H](N(C)C)[C@H]2O)[C@](C)(OC)C[C@@H](C)C(=O)[C@H](C)[C@@H](OC(=O)NCCNC(=O)c2cc([N+](=O)[O-])cc([N+](=O)[O-])c2)[C@]1(C)O`, for which the values for the Ratio with Streptococcus pneumoniae [1] and with Streptococcus pneumoniae [9] were 4 and 8, respectively. For the same molecule, the MIC in the test with Streptococcus pneumoniae [2] came out at 64 mg/L (≈ 73.7 µM); against Streptococcus pyogenes [3], 128 mg/L (≈ 147 µM); in the test on Streptococcus pneumoniae [4], 0.5 mg/L (≈ 0.576 µM); in the test on Streptococcus pneumoniae [5], 128 mg/L (≈ 147 µM); with Staphylococcus aureus [6], 128 mg/L (≈ 147 µM); with Bacillus subtilis it was 1 mg/L (≈ 1.15 µM). For the same molecule, the MIC was determined as 128 mg/L (≈ 147 µM) against Pseudomonas aeruginosa, 0.125 mg/L (≈ 0.144 µM) in the test with Streptococcus pyogenes [7], 128 mg/L (≈ 147 µM) in the test with Escherichia coli and 8 mg/L (≈ 9.22 µM) in the test with Staphylococcus aureus [8].
Consider `CC[C@H]1OC(=O)[C@H](C)[C@@H](O[C@H]2C[C@@](C)(OC)[C@@H](O)[C@H](C)O2)[C@H](C)[C@@H](O[C@@H]2O[C@H](C)C[C@H](N(C)C)[C@H]2O)[C@](C)(OC)C[C@@H](C)C(=O)[C@H](C)[C@@H](O)[C@]1(C)O` [CLARITHROMYCIN], for which the MIC in the test on Streptococcus pneumoniae [2] is 128 mg/L (≈ 171 µM); in the test with Streptococcus pyogenes [3] it was greater than 128 mg/L; in the test on Streptococcus pneumoniae [4], 4 mg/L (≈ 5.35 µM); in the test with Streptococcus pneumoniae [5], greater than 128 mg/L; in the test on Staphylococcus aureus [6], 64 mg/L (≈ 85.6 µM); against Bacillus subtilis it was 0.25 mg/L (≈ 0.334 µM). Besides, the MIC came out at 64 mg/L (≈ 85.6 µM) against Pseudomonas aeruginosa, 0.03 mg/L (≈ 0.0401 µM) in the test on Streptococcus pyogenes [7], 64 mg/L (≈ 85.6 µM) in the test on Escherichia coli and 0.25 mg/L (≈ 0.334 µM) in the test on Staphylococcus aureus [8].

As a reminder, the MIC is the lowest concentration that inhibits growth of the organism. A low value points to a more susceptible organism.
